{"source": "the NIST ThermoML archive (doi:10.1016/j.jct.2015.05.024)", "key": {"[1]": {"settings": "100 kPa, Liquid; for mass density: Vibrating tube method; for speed of sound: Frequency=5 MHz, Pulse-echo method"}, "[2]": {"test": "xn = mol fraction of the nth substance listed", "settings": "100 kPa, Liquid, x2 = 0; for mass density: Vibrating tube method; for speed of sound: Frequency=5 MHz, Pulse-echo method"}}, "note": "Numbers after ± are expanded uncertainties.", "data": [{"compound": "OCCOCCOCCO", "note": "[triethylene glycol]", "values": [{"measurement": "mass density", "setting": "[1]; 278.15 K", "value": "1135.14 ± 0.34", "unit": "kg/m3"}, {"measurement": "mass density", "setting": "[1]; 283.15 K", "value": "1131.29 ± 0.34", "unit": "kg/m3"}, {"measurement": "speed of sound", "setting": "[1]; 288.15 K", "value": "1643.9 ± 1.4", "unit": "m/s"}, {"measurement": "mass density", "setting": "[1]; 288.15 K", "value": "1127.43 ± 0.33", "unit": "kg/m3"}, {"measurement": "speed of sound", "setting": "[1]; 293.15 K", "value": "1629 ± 1.4", "unit": "m/s"}, {"measurement": "mass density", "setting": "[1]; 293.15 K", "value": "1123.56 ± 0.33", "unit": "kg/m3"}, {"measurement": "speed of sound", "setting": "[1]; 298.15 K", "value": "1613.5 ± 1.4", "unit": "m/s"}, {"measurement": "mass density", "setting": "[1]; 298.15 K", "value": "1119.69 ± 0.33", "unit": "kg/m3"}, {"measurement": "speed of sound", "setting": "[1]; 303.15 K", "value": "1599.1 ± 1.4", "unit": "m/s"}, {"measurement": "mass density", "setting": "[1]; 303.15 K", "value": "1115.81 ± 0.32", "unit": "kg/m3"}, {"measurement": "speed of sound", "setting": "[1]; 308.15 K", "value": "1584.6 ± 1.4", "unit": "m/s"}, {"measurement": "mass density", "setting": "[1]; 308.15 K", "value": "1111.92 ± 0.32", "unit": "kg/m3"}, {"measurement": "speed of sound", "setting": "[1]; 313.15 K", "value": "1569.1 ± 1.4", "unit": "m/s"}, {"measurement": "mass density", "setting": "[1]; 313.15 K", "value": "1108.03 ± 0.32", "unit": "kg/m3"}, {"measurement": "speed of sound", "setting": "[1]; 318.15 K", "value": "1554.7 ± 1.4", "unit": "m/s"}, {"measurement": "mass density", "setting": "[1]; 318.15 K", "value": "1104.13 ± 0.31", "unit": "kg/m3"}, {"measurement": "mass density", "setting": "[1]; 323.15 K", "value": "1100.22 ± 0.31", "unit": "kg/m3"}, {"measurement": "mass density", "setting": "[1]; 328.15 K", "value": "1096.3 ± 0.31", "unit": "kg/m3"}, {"measurement": "mass density", "setting": "[1]; 333.15 K", "value": "1092.38 ± 0.3", "unit": "kg/m3"}]}, {"compound": "O", "note": "[water] + OCCOCCOCCO", "values": [{"measurement": "mass density", "setting": "[2]; 278.15 K", "value": "999.965 ± 0.11", "unit": "kg/m3"}, {"measurement": "mass density", "setting": "[2]; 283.15 K", "value": "999.698 ± 0.11", "unit": "kg/m3"}, {"measurement": "speed of sound", "setting": "[2]; 313.15 K", "value": "1528.8 ± 0.99", "unit": "m/s"}, {"measurement": "speed of sound", "setting": "[2]; 318.15 K", "value": "1536.7 ± 0.99", "unit": "m/s"}, {"measurement": "mass density", "setting": "[2]; 323.15 K", "value": "988.027 ± 0.11", "unit": "kg/m3"}, {"measurement": "mass density", "setting": "[2]; 328.15 K", "value": "985.682 ± 0.11", "unit": "kg/m3"}, {"measurement": "mass density", "setting": "[2]; 333.15 K", "value": "983.186 ± 0.11", "unit": "kg/m3"}]}, {"compound": "O", "note": "[water]", "values": [{"measurement": "mass density", "setting": "[1]; 278.15 K", "value": "999.965 ± 0.11", "unit": "kg/m3"}, {"measurement": "mass density", "setting": "[1]; 283.15 K", "value": "999.698 ± 0.11", "unit": "kg/m3"}, {"measurement": "speed of sound", "setting": "[1]; 313.15 K", "value": "1528.8 ± 0.99", "unit": "m/s"}, {"measurement": "speed of sound", "setting": "[1]; 318.15 K", "value": "1536.7 ± 0.99", "unit": "m/s"}, {"measurement": "mass density", "setting": "[1]; 323.15 K", "value": "988.027 ± 0.11", "unit": "kg/m3"}, {"measurement": "mass density", "setting": "[1]; 328.15 K", "value": "985.682 ± 0.11", "unit": "kg/m3"}, {"measurement": "mass density", "setting": "[1]; 333.15 K", "value": "983.186 ± 0.11", "unit": "kg/m3"}]}]}
